This passage reports IC50 results from patent US20230310428A1, “EGFR INHIBITOR AND PREPARATION METHOD AND USE THEREOF” (HONGYUN BIOTECH CO., LTD., priority 2020, published 2023).

What all share (assay): Growth inhibitory activity of compounds on BaF3 cell lines stably transfected with kinase (MTS, 48 h)
Common to all, as to assay type: cell-based

Assay [1] deals with T1, various mutants of kinase EGFR (BaF3 cell lines stably transfected with kinase) (Homo sapiens, UniProt P00533, T790M, form not given).
T1 construct: other: BaF3 cells stably transfected with EGFR Δ19Del/T790M; MTS, 48 h; other: BaF3 cell line stably transfected with EGFR Δ19Del/T790M; MTS, 48
The note with it: BaF3 cells stably transfected with EGFR Δ19Del/T790M, read-out: IC50, growth inhibition, Δ19Del/T790M. Summed up: (§1)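 OD at 490 nm after 1-4 h MTS/PES incubation gave growth inhibition relative to 0.1% DMSO negative and cell-free medium blank. Compounds: 8-point 1/3 dilution from 10 µM, 48 h, 37 °C. IC50 from inhibition curves; duplicates.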

For assay [2], the target named is T2, various mutants of kinase EGFR (BaF3 cell lines stably transfected with kinase) (Homo sapiens, UniProt P00533, T790M/C797S, form not given).
T2 construct: other: BaF3 cells stably transfected with EGFR Δ19Del/T790M/C797S; MTS, 48; other: BaF3 cell line stably transfected with EGFR Δ19Del/T790M/C7
The note with it: BaF3 cells stably transfected with EGFR Δ19Del/T790M/C797S, read-out: IC50, growth inhibition, Δ19Del/T790M/C797S. Summed up:
as §1

Assay [3] concerns the target T3, various mutants of kinase EGFR (BaF3 cell lines stably transfected with kinase) (Homo sapiens, UniProt P00533, C797S/L858R/T790M).
T3 construct: expressed in transfected cells; host or cells: BaF3
The note with it: BaF3 cells stably transfected with EGFR L858R/T790M/C797S, read-out: IC50, growth inhibition, L858R/T790M/C797S. The method in brief:
as §1

Assay [4] addresses T4, various mutants of kinase EGFR (BaF3 cell lines stably transfected with kinase) (Homo sapiens, UniProt P00533).
T4 construct: other: BaF3 cells stably transfected with EGFR Δ19Del; MTS, 48 h; other: BaF3 cell line stably transfected with EGFR Δ19Del
Particulars: BaF3 cells stably transfected with EGFR Δ19Del, read-out: IC50, growth inhibition, Δ19Del. The method in brief: as §1

Assay [5] addresses T5, various mutants of kinase EGFR (BaF3 cell lines stably transfected with kinase) (Homo sapiens, UniProt P00533, L858R).
T5 construct: expressed in transfected cells; host or cells: BaF3
Particulars: BaF3 cells stably transfected with EGFR L858R, read-out: IC50, growth inhibition, L858R. The method in brief: as §1

Assay [6] concerns the target T6, various mutants of kinase EGFR (BaF3 cell lines stably transfected with kinase) (Homo sapiens, UniProt P00533, L858R/T790M).
T6 construct: expressed in transfected cells; host or cells: BaF3
Particulars: BaF3 cells stably transfected with EGFR L858R/T790M, read-out: IC50, growth inhibition, L858R/T790M. The method in brief: as §1

A value given as a limit tells only on which side of the number the result lay.

T2 sequence (P00533 with tags, fused parts or gaps DEL746-750/T790M/C797S, form open): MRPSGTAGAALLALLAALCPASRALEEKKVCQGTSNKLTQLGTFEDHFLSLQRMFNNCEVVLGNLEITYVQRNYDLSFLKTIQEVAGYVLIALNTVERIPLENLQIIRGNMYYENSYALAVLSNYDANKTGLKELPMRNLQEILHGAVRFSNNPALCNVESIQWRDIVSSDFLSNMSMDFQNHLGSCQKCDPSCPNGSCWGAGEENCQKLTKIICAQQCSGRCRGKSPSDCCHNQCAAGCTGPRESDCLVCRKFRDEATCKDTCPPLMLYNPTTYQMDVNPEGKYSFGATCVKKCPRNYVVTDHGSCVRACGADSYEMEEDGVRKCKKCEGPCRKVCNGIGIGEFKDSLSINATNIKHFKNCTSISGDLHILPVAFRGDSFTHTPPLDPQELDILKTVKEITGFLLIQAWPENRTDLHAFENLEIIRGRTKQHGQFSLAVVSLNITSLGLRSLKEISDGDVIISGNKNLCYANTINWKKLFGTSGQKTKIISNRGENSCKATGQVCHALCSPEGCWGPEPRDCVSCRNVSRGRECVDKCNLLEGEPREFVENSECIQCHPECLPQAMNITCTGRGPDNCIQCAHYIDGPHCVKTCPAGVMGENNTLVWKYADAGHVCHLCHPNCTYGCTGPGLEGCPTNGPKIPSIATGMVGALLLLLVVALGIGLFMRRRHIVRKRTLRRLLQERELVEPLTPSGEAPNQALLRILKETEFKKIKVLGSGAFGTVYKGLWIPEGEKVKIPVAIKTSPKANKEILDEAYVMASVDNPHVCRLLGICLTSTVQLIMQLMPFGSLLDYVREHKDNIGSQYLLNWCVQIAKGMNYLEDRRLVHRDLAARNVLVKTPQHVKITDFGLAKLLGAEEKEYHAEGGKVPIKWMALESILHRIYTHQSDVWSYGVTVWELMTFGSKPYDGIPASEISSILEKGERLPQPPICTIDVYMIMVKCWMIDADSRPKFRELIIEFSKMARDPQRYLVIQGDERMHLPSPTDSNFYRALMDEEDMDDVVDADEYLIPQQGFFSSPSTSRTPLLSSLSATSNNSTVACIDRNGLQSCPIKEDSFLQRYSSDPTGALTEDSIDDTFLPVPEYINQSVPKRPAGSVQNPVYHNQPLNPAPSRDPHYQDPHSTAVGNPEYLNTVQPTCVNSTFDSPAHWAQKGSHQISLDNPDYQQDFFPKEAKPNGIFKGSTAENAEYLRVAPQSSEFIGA
T1 sequence (P00533 with tags, fused parts or gaps DEL746-750/T790M, form open): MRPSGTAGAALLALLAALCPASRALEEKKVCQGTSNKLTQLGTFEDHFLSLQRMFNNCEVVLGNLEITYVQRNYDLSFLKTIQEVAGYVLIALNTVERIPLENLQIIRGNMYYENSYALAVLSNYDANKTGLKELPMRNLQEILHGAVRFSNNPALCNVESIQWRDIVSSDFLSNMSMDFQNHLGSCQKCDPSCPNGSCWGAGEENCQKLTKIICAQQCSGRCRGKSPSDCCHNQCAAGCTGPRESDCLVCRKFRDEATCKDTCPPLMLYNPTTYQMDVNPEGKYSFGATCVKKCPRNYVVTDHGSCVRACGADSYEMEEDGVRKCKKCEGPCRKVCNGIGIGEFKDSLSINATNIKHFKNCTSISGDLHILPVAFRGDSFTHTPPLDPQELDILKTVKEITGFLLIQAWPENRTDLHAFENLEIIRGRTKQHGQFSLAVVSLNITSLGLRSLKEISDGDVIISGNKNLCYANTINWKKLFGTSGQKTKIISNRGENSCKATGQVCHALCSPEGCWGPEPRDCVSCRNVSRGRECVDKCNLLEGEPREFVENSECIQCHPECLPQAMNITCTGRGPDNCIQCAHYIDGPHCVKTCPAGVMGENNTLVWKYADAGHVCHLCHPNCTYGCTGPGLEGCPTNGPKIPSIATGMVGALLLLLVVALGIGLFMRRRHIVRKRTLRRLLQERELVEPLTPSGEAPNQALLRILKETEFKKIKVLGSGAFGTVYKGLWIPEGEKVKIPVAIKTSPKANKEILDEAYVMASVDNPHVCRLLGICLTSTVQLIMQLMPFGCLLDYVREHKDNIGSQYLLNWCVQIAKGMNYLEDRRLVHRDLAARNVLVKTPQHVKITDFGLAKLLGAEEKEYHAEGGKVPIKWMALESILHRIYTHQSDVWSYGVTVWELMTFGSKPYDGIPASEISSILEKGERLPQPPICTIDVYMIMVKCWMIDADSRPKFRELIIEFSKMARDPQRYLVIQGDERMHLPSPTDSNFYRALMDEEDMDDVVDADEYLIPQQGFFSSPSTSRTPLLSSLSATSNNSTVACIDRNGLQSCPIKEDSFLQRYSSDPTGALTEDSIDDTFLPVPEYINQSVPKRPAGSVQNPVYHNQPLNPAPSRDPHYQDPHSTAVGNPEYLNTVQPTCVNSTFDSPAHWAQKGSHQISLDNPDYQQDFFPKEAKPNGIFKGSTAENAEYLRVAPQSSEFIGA
T4 sequence (P00533 with tags, fused parts or gaps DEL746-750): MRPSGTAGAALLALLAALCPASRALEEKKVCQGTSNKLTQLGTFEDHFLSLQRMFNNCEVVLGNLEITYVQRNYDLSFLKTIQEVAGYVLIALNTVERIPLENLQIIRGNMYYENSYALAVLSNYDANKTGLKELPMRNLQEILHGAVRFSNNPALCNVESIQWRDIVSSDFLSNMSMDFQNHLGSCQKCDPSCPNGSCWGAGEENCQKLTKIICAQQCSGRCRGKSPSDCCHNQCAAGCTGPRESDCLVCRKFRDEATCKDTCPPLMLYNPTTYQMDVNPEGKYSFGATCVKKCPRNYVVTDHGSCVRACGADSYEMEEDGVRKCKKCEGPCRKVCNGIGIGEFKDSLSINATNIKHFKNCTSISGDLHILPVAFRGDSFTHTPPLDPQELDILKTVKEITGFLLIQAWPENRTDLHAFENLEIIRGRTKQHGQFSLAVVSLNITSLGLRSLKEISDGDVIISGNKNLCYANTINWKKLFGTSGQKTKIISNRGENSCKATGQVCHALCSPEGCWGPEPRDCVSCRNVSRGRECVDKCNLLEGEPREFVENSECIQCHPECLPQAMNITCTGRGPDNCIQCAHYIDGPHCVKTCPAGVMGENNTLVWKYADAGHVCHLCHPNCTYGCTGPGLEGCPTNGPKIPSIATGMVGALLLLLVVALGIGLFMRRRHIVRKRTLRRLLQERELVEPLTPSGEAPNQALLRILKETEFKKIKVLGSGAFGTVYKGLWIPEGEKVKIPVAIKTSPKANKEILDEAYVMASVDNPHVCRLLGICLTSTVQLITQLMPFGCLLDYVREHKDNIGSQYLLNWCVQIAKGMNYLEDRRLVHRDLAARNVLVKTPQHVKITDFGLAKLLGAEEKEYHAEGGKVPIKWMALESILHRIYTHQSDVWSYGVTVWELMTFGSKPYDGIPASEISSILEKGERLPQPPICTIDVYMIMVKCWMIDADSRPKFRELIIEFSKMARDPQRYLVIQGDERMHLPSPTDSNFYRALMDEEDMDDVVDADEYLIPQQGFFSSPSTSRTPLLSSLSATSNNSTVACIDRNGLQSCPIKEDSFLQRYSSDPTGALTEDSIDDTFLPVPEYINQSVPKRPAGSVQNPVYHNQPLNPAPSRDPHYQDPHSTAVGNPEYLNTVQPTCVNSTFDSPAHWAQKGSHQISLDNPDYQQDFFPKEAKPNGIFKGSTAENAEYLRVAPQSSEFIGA
T3 sequence (P00533 25-1210 T790M/C797S/L858R): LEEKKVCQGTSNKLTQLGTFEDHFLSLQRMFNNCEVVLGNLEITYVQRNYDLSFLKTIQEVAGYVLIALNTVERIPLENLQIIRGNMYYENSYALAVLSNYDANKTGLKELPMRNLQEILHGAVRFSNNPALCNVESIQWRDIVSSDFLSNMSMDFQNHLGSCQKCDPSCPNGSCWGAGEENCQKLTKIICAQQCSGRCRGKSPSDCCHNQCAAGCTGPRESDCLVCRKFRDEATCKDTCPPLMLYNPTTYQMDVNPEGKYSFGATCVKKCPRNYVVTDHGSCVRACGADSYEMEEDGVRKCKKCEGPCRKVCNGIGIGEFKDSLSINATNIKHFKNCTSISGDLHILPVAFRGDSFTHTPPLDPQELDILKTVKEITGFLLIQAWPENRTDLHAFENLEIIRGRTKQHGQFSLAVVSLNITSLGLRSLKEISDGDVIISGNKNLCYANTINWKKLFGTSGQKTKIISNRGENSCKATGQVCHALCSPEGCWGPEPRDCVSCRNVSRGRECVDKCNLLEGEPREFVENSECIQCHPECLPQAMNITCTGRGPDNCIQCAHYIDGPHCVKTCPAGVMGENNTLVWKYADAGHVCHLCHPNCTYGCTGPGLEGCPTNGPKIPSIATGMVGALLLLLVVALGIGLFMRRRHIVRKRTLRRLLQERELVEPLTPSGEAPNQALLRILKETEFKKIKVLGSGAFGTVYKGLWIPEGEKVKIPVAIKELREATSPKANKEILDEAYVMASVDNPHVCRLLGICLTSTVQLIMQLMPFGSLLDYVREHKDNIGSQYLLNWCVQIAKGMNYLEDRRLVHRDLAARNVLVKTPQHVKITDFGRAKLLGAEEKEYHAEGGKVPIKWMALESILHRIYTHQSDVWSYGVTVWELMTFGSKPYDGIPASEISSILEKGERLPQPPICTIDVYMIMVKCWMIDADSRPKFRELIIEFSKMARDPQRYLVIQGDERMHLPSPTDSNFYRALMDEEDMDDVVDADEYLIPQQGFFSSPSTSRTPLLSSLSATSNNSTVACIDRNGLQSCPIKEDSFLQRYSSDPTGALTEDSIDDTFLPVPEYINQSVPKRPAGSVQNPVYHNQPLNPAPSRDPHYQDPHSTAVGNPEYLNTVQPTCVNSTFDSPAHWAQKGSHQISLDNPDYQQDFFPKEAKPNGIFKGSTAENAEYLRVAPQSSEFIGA

Consider `CCS(=O)(=O)N(C)c1c(Nc2nc(Nc3cc(CC4CC4)c(N4CCC(N5CCN(C)CC5)CC4)cc3OC)ncc2Cl)ccc2nccnc12` [Compound I-235], for which the IC50 was at most 50 nM in assay [1]; at most 50 nM in assay [2]; 50 to 500 nM in assay [3]; 50 to 500 nM in assay [4]; 50 to 500 nM in assay [5]; at most 50 nM in assay [6].

Take `CCc1cc(Nc2ncc(Cl)c(Nc3ccc4nccnc4c3N(C)S(=O)(=O)CC)n2)c(OC)cc1N1CCN(C)CC1` [Compound I-236]: the IC50 in assay [1], in assay [2], in assay [3], in assay [4], in assay [5] and in assay [6] was at most 50 nM in each case.

Consider `COc1cc(N2CCC(N3CCN(C)CC3)CC2)ccc1Nc1ncc(Cl)c(Nc2ccc3nccnc3c2N(C)S(=O)(=O)C2CC2)n1` [Compound I-237], for which the IC50 in assay [1], in assay [2], in assay [3], in assay [4], in assay [5] and in assay [6] was 50 to 500 nM in each case.

Regarding `COc1cc(N2CCC(N3CCN(C)CC3)CC2)c(CC2CC2)cc1Nc1ncc(Cl)c(Nc2ccc3nccnc3c2N(C)S(=O)(=O)C2CC2)n1` [Compound I-238], the IC50 was 50 to 500 nM in assay [1]; at most 50 nM in assay [2]; 50 to 500 nM in assay [3]; 50 to 500 nM in assay [4]; 50 to 500 nM in assay [5]; 50 to 500 nM in assay [6].

Regarding `COc1nc(N2CCC(N3CCN(C)CC3)CC2)ccc1Nc1ncc(Cl)c(Nc2ccc3nccnc3c2N(C2CC2)S(C)(=O)=O)n1` [Compound I-239], the IC50 in assay [1] is 50 to 500 nM; in assay [2], at most 50 nM; in assay [3], 50 to 500 nM; in assay [4] it was 50 to 500 nM; in assay [5] it was 50 to 500 nM; in assay [6], 50 to 500 nM.

Turning to `COc1nc(N2CCC(N3CCN(C)CC3)CC2)c(C)cc1Nc1ncc(Cl)c(Nc2ccc3nccnc3c2N(C2CC2)S(C)(=O)=O)n1` [Compound I-240], the IC50 in assay [1], in assay [2], in assay [3], in assay [4], in assay [5] and in assay [6] was 500 to 2500 nM in each case.

Regarding `CCc1cc(Nc2ncc(Cl)c(Nc3ccc4nccnc4c3N(C3CC3)S(C)(=O)=O)n2)c(OC)nc1N1CCC(N2CCN(C)CC2)CC1` [Compound I-241], the IC50 in assay [1] was at most 50 nM; in assay [2] it was at most 50 nM; in assay [3] it was 50 to 500 nM; in assay [4], at most 50 nM; in assay [5] it was at most 50 nM; in assay [6], at most 50 nM.

Regarding `COc1cc(N2CCC(N3CCN(C)CC3)CC2)c(CC2CC2)cc1Nc1ncc(Cl)c(Nc2ccc3nccnc3c2N(C2CC2)S(C)(=O)=O)n1` [Compound I-242], the IC50 was 50 to 500 nM in assay [1]; at most 50 nM in assay [2]; at most 50 nM in assay [3]; 50 to 500 nM in assay [4]; 50 to 500 nM in assay [5]; 50 to 500 nM in assay [6].

Regarding `COc1cc(N2CCC(N(C)C)CC2)c(C)cc1Nc1ncc(Cl)c(Nc2ccc3nccnc3c2N(C2CC2)S(C)(=O)=O)n1` [Compound I-243], the IC50 in assay [1] is at most 50 nM; in assay [2], 50 to 500 nM; in assay [3], 50 to 500 nM; in assay [4], at most 50 nM; in assay [5] it was at most 50 nM; in assay [6] it was at most 50 nM.

With `COc1cc(N2CCN(C)CC2)c(C)cc1Nc1ncc(Cl)c(Nc2ccc3nccnc3c2N(C2CC2)S(C)(=O)=O)n1` [Compound I-244], the IC50 in assay [1] is 50 to 500 nM; in assay [2], at most 50 nM; in assay [3] it was at most 50 nM; in assay [4] it was at most 50 nM; in assay [5] it was at most 50 nM; in assay [6], at most 50 nM.

For `CCc1cc(Nc2ncc(Cl)c(Nc3ccc4nccnc4c3N(C3CC3)S(C)(=O)=O)n2)c(OC)cc1N1CCN(C)CC1` [Compound I-245], the IC50 in assay [1], in assay [2], in assay [3], in assay [4], in assay [5] and in assay [6] was at most 50 nM each time.

Consider `COc1cc(N2CCC(N(C)C)C2)c(C)cc1Nc1ncc(Cl)c(Nc2ccc3nccnc3c2N(C2CC2)S(C)(=O)=O)n1` (stereo not drawn) [Compound I-246], for which the IC50 in assay [1], in assay [2], in assay [3], in assay [4], in assay [5] and in assay [6] was at most 50 nM each time.

Consider `COc1cc(N2CCC(N3CCN(C)CC3)CC2)ccc1Nc1ncc(F)c(Nc2ccc3nccnc3c2N(C)S(=O)(=O)C2CC2)n1` [Compound I-247], for which the IC50 in assay [1] lay within 500 to 2500 nM; in assay [2] it was 50 to 500 nM; in assay [3] it was 500 to 2500 nM; in assay [4], 50 to 500 nM; in assay [5] it was 50 to 500 nM; in assay [6], 500 to 2500 nM.

As to `COc1cc(N2CCC(N3CCN(C)CC3)CC2)c(C)cc1Nc1ncc(F)c(Nc2ccc3nccnc3c2N(C)S(=O)(=O)C2CC2)n1` [Compound I-248], the IC50 was 50 to 500 nM in assay [1]; at most 50 nM in assay [2]; 50 to 500 nM in assay [3]; at most 50 nM in assay [4]; at most 50 nM in assay [5]; at most 50 nM in assay [6].

For `CCc1cc(Nc2ncc(F)c(Nc3ccc4nccnc4c3N(C)S(=O)(=O)C3CC3)n2)c(OC)cc1N1CCC(N2CCN(C)CC2)CC1` [Compound I-249], the IC50 was 50 to 500 nM in assay [1]; at most 50 nM in assay [2]; 50 to 500 nM in assay [3]; at most 50 nM in assay [4]; at most 50 nM in assay [5]; at most 50 nM in assay [6].

For `CCc1cc(Nc2ncc(F)c(Nc3ccc4nccnc4c3N(C)S(=O)(=O)C3CC3)n2)c(OC(F)(F)F)cc1N1CCC(N2CCN(C)CC2)CC1` [Compound I-250], the IC50 was in the range of 500 to 2500 nM in assay [1]; 50 to 500 nM in assay [2]; 500 to 2500 nM in assay [3]; 50 to 500 nM in assay [4]; 50 to 500 nM in assay [5]; 50 to 500 nM in assay [6].

On to `COc1cc(N2CCC(N3CCN(C)CC3)CC2)c(CC2CC2)cc1Nc1ncc(F)c(Nc2ccc3nccnc3c2N(C)S(=O)(=O)C2CC2)n1` [Compound I-251], for which the IC50 in assay [1] lay within 500 to 2500 nM; in assay [2], 50 to 500 nM; in assay [3] it was 500 to 2500 nM; in assay [4], 50 to 500 nM; in assay [5] it was 50 to 500 nM; in assay [6] it was 50 to 500 nM.

Regarding `CCc1cc(Nc2ncc(F)c(Nc3ccc4nccnc4c3N(C)S(=O)(=O)C3CC3)n2)c(OC)cc1N1CCC(N(C)C)CC1` [Compound I-252], the IC50 in assay [1] is 50 to 500 nM; in assay [2], at most 50 nM; in assay [3], 50 to 500 nM; in assay [4], at most 50 nM; in assay [5] it was at most 50 nM; in assay [6], at most 50 nM.

As for `CCc1cc(Nc2ncc(Cl)c(Nc3ccc4nccnc4c3N(C)S(=O)(=O)C(C)C)n2)c(OC)nc1N1CCC(N2CCN(C)CC2)CC1` [Compound I-253], the IC50 in assay [1] was at most 50 nM; in assay [2], at most 50 nM; in assay [3], 50 to 500 nM; in assay [4], 50 to 500 nM; in assay [5], 50 to 500 nM; in assay [6], 50 to 500 nM.

`COc1cc(N2CCC(N3CCN(C)CC3)CC2)c(CC2CC2)cc1Nc1ncc(Cl)c(Nc2ccc3nccnc3c2N(C)S(=O)(=O)C(C)C)n1` [Compound I-254]: the IC50 in assay [1] is at most 50 nM; in assay [2] it was 50 to 500 nM; in assay [3], 50 to 500 nM; in assay [4] it was 50 to 500 nM; in assay [5] it was 50 to 500 nM; in assay [6], 50 to 500 nM.

`CCc1cc(Nc2ncc(Cl)c(Nc3ccc4nccnc4c3N(C)S(=O)(=O)C(C)C)n2)c(OC)cc1N1CCN(C)CC1` [Compound I-255]: the IC50 in assay [1] was at most 50 nM; in assay [2], at most 50 nM; in assay [3], 50 to 500 nM; in assay [4] it was 50 to 500 nM; in assay [5] it was 50 to 500 nM; in assay [6], 50 to 500 nM.

Consider `COc1cc(N2CCC(N3CCN(C)CC3)CC2)ccc1Nc1ncc(Br)c(Nc2ccc3nccnc3c2N(C)S(=O)(=O)C(F)(F)F)n1` [Compound I-256], for which the IC50 in assay [1] is 500 to 2500 nM; in assay [2] it was 50 to 500 nM; in assay [3], 50 to 500 nM; in assay [4], 500 to 2500 nM; in assay [5], 500 to 2500 nM; in assay [6] it was 50 to 500 nM.
